Laboratory results reported in US12458614B2, “Therapeutic agents for improved mobility and cognitive function and for treating neurodegenerative diseases and lysosomal storage disorders” (priority 2017, dated 2025).

Legend:
[1] = tested on: patient with Spinocerebellar Ataxia (SCA) 1; test: Case study, Spinocerebellar Ataxia (SCA) 1; assay type: in vivo, human
[2] = tested on: patient with frontotemporal dementia with parkinsonism; test: Case study, frontotemporal dementia with parkinsonism; assay type: in vivo, human
Source text: After approximately one month of acetyl-leucine treatment, medication was stopped and the patient was re-examined 13 days later.

[3] = tested on: person with progressive postural imbalance; test: Case study Example 22, get up and go test and cognition; assay type: in vivo, human
Experimental: Treatment with acetyl-DL-leucine (Tanganil®) was started because the patient was suffering from imbalance and gait disorder. They initiated a one-month course comprising nine 500 mg tablets taken three times a day (TID) with meals, i.e., a total daily dosage of 4.5 g.
The ability of the subject to move was measured in a home setting “get up and go test”. This test involved the subject rising unaided from their chair and walking the length of their living area to their kitchen. This was timed over seven consecutive days prior to treatment, and over the next seven consecutive days once treatment with Tanganil® had started.
The same subject then initiated another month of treatment, i.e. a further one-month course comprising nine 500 mg capsules taken TID with meals (total daily dosage of 4.5 g).

[4] = tested on: Npc1−/− mouse; test: Lifespan; assay type: in vivo; conditions: 0.1 g/kg from 3 weeks of age
Source text: Separate groups of Npc1^−/− and Npc1^+/+ mice were left untreated, as controls.

[5] = tested on: amyloid precursor protein C-terminal fragments (APP-CTFs); test: APP-CTF levels relative to total APP in the cerebellum; assay type: in vivo, mouse; conditions: NPC1−/− mice, 0.1 g/kg body weight daily from 3 weeks, sacrificed at 8 weeks
Experimental: The Niemann-Pick Disease Type C (NPC) mouse model shares a number of pathological features with Alzheimer's disease (AD) as described herein. […] Mice were sacrificed at 8 weeks of age. Levels of amyloid precursor protein C-terminal fragments (APP-CTFs) were evaluated relative to total amyloid precursor protein (APP) levels in the cerebellum for wild type, untreated wild type NPC1^−/− mice, and AL-treated wild type NPC1^−/− mice. Levels of microtubule-associated protein 1A/1B-light chain 3-phosphatidylethanolamine conjugate (LC3-II) were also evaluated relative to levels of tubulin loading control for wild type, untreated wild type NPC1^−/− mice, and AL-treated wild type NPC1^−/− mice.

[6] = tested on: patients with Niemann-Pick Type C (NPC); conditions: one-month study, 12 NPC patients (Bremova 2015); cited from earlier work
[7] = tested on: Npc1−/− mice; test: Motor function analysis (Open Field Activity Monitor); assay type: in vivo, mouse; conditions: nine weeks of age
Experimental: (§1) Separate groups of Npc1^−/− and Npc1^+/+ mice were left untreated, as controls. Motor function analysis was performed on mice at eight and nine weeks of age using an Open Field Activity Monitor according to manufacturer's instructions (Linton Instruments, Amlogger Software). Each mouse was placed in a plastic cage with bedding and analysed for five minutes. Rears were counted manually. Motor function parameters measured were: • 1. Centre Rearing: mice rearing on hind legs unsupported; • 2. Rearing: mice rearing on hind legs with and without the support of cage walls; • 3. Activity: regular movement of the animal including walks; • 4. Front to Back (FR) count: movement of the animal from front to back of the cage; • 5. Active Time: duration (s/min) of activeness regardless of movement; • 6. Mobile Time: duration (s/min) of mobility; • 7. Rearing Time: duration of any rearing. Results Coat Condition

[8] = tested on: wild-type (Npc1+/+) mice; test: as above; assay type: in vivo, mouse; conditions: nine weeks of age
Experimental: as §1

[9] = tested on: Npc1−/− mice; test: Observation of coat condition and disease symptoms; assay type: in vivo, mouse; conditions: Npc1−/− mice treated from weaning
Source text: Separate groups of Npc1^-/- and Npc1^+/+ mice were left untreated, as controls.

[10] = tested on: AB variant of Tay-Sachs disease patient fibroblasts; test: Glycosphingolipid (GSL) levels via HPLC; assay type: cell-based, human; conditions: 1 mM for 6 days
[11] = tested on: Mucolipidosis Type IIIA (MLIIIA) patient fibroblasts; test: Lysosomal volume via LysoTracker; assay type: cell-based, human; conditions: 1 mM, 6 days
[12] = tested on: patients with vertigo; conditions: clinical results reported by various authors; cited from earlier work
[13] = tested on: patients with progressive supranuclear palsy; test: Case studies, progressive supranuclear palsy; assay type: in vivo, human
Experimental: After 27 days of acetyl-leucine treatment, medication was stopped and the patient was re-examined 60 days later. […] Gait analysis was performed before treatment commenced. After 17 days of treatment, medication was stopped and the patient was re-examined 4 days later. […] Gait analysis was performed before treatment commenced. After three weeks of treatment, medication was stopped and the patient was re-examined.

[14] = tested on: Mucopolysaccharidosis Type VII (MPS VII) patient fibroblasts; test: Lysosomal volume via LysoTracker; assay type: cell-based, human; conditions: 1 mM, 6 days
[15] = tested on: Sandhoff disease model, Hexb−/− mouse; test: Bar crossing test; assay type: in vivo; conditions: Sandhoff mice, 0.1 g/kg from 3 weeks of age
Source text: This study made use of a mouse model of Sandhoff disease, the Hexb^−/− mouse, as descrbed in Jeyakumar et al. (Jeyakumar, M. et al. (1999) Proc. Natl. Acad. Sci. USA 96: 6388-6393). The bar crossing test is a method for assessing motor function in mice in which the mouse is placed hanging from the centre of a horizontal bar by its front limbs. A wild-type mouse with normal motor function will be able to engage its hind limbs and thereby move to one of the platforms at either end of the bar, and in doing so complete the test. […] In FIG. 7 B, acetyl-leucine treatment of 0.1 g/kg body weight was provided from 3 weeks of age. The acetyl-leucine treated Sandhoff mice retained the ability to complete the test up to 13 weeks of age (inclusive). Data shown is the mean of 6 mice per group. The treated Sandhoff mice retained the ability to complete the test up to 13 weeks of age (inclusive).

[16] = PSP Patient 4, after three weeks of treatment

## CC(=O)NC(CC(C)C)C(=O)O (racemic) [acetyl-DL-leucine]
[1]; three weeks on medication, 5 g/day
  Symptoms: all symptoms significantly improved
[1]; two weeks after medication was stopped
  Intensity of signs and symptoms after stop: the same as before therapy
[2]; re-examined 13 days after stop
  Symptoms after suspension of treatment: symptoms worsened
[2]; under therapy
  Falls: falls stopped
  Speech: improvement of speech
[2]; under therapy, 3 then 5 gram per day, about one month
  Gait: significant improvement of gait
[3]; after 2-3 weeks of treatment
  Cognitive function (noticed by family): significant improvement in their cognitive function, spatial awareness and general demeanor
[3]; on treatment, 4.5 g daily
  Faster than pre-treatment, get up and go test: 25%
[3]; once treatment had started, 4.5 g daily, 40±3 prior to treatment
  Average time, get up and go test: 30 ± 2 s
[3]; over eighteen months, 4.5 g per day
  Side effects: no side effects
[3]; second one-month course, 4.5 g daily
  Improvements on second treatment: rapidly returned
[4]
  Lifespan: small but statistically significant increase in lifespan
[5]
  APP-CTF levels relative to total APP, cerebellum: lowering of APP-CTFs
[6]
  ataxia symptoms: symptomatic improvement of ataxia
[7]
  Motor function properties vs untreated littermates: significantly improved motor function
[8]
  Motor function properties vs untreated littermates: no significant difference in motor function properties
[9]
  Delay of discernible disease symptoms vs untreated Npc1−/− littermates: two
[10]
  GSL levels: trend towards decreased GSL levels
[11]
  LysoTracker fluorescence vs untreated disease fibroblasts: trend in reducing LysoTracker fluorescence toward control level
[12]
  improvement in vertigo symptomology (share of cases): more than 95%
[13]; PSP Patient 1
  Symptoms after suspension: symptoms worsened
[13]; PSP Patient 1, re-examined about two months later
  PSPRS Score: remained stable
[13]; PSP Patient 1, under therapy, 27 days
  Dizziness and gait (patient report): significant reduction of dizziness and slight improvement of gait
[13]; PSP Patient 2, 17 days of treatment
  Gait / hypokinetic rigid syndrome (patient report): no significant improvement of gait or hypokinetic rigid syndrome
[13]; PSP Patient 3, 17 days of treatment
  Gait / hypokinetic rigid syndrome (patient report): no significant improvement of gait or hypokinetic rigid syndrome
[13]; PSP Patient 4, after three months without medication
  Symptoms without medication: progression of hypokinetic-rigid syndrome
[13]; [16]
  Gait analysis (summary): improvement of gait with increased speed, max. speed, and step cycle length and reduction of track width, double stance and coefficient of variation
  Gait and falls (patient report): gait with increased subjective security and with reduced frequency of falls
[14]
  LysoTracker fluorescence vs untreated disease fibroblasts: trend in reducing LysoTracker fluorescence toward control level
[15]
  Age up to which ability to complete the bar crossing test was retained (inclusive): up to 13 weeks of age
  Motor function and hind-limb mobility/engagement, bar-crossing test: improved motor function and hind-limb mobility/engagement
